According to a melting point compilation (Tetko et al.; mined from patent text by program, amines drawn as free bases though some values may be those of a salt):

With `Cc1nn(C)c(=O)n1-c1ccccc1COc1ccn(-c2ccc(Cl)cc2)n1` the melting point was 107 to 108 °C. In the case of `O=CC(=Cc1ccccc1Cl)C(C=O)=Cc1ccccc1Cl`, the melting point is reported as 177 to 178 °C. `COc1cc2c(cc1OCc1ccccc1)C(C#N)C2` (centres undefined) showed a melting point of 85 °C. Compound `Cc1cc(F)ccc1-c1nc(OCCN)nc2c1ccc(=O)n2-c1c(F)cccc1F` has a melting point of 96 to 99 °C. In the case of `CC(C)(CCCc1cccnc1)NC(=O)/C=C/C=C(c1ccc(F)cc1)c1ccc(F)cc1`, the melting point is reported as 164 °C. `COCc1ccc(Oc2cc(OC3CCOCC3)c3[nH]c(C4=NCC(CC(C)(C)O)S4)cc3c2)cn1` (centres undefined) gave a melting point of 108 to 110 °C. Work on `Cc1ccc(NC(=O)c2cc(Cl)ccc2NCC2CCN(C3CCSCC3)CC2)nc1` yielded a melting point of 173 to 176 °C. In the case of `CNC(=O)Nc1ccc(S(N)(=O)=O)cc1`, the melting point is reported as 211 to 213 °C. Compound `COc1ccc(-c2cc(N3CCOCC3)cc(=O)o2)cc1` has a melting point of 212 to 213 °C. In the case of `O=c1c2ccc(F)cc2oc2ccc(C(F)(F)F)cc12`, the melting point is reported as 140 to 142 °C. Compound `CCCCCCCCCCC[C@@H](O)CC(=O)O` has a melting point of 70.6 to 71.4 °C. `CCOC(=O)COc1ccc(-c2ccc(Cl)c(C(=O)NCC34CC5CC(CC(C5)C3)C4)c2)cc1` showed a melting point of 136 to 140 °C. `O=C(NCCCCN1CCC(c2ccccc2)CC1)c1ccc2ccccc2c1` gave a melting point of 143 to 144 °C. With `Cc1cc(C)c(C(=O)Nc2ccc(-n3nc(C(F)(F)F)cc3C(F)(F)F)cc2)c(C)c1` the melting point was 203 to 205 °C. With `Cc1cc2c(c(C(O)c3cn(C(c4ccccc4)(c4ccccc4)c4ccccc4)cn3)c1)OC(C)(C)OC2` (centres undefined) the melting point was 205 to 215 °C. Compound `Cc1cc(-c2ccc(Cl)cc2)cnc1N` has a melting point of 156 °C. For `COc1ccc2nc(CCCCCCC(=O)O)ccc2c1`, the melting point was 84 to 87 °C. Work on `CC1(C)Oc2ccc(C#N)cc2[C@@H](n2ncccc2=O)[C@@H]1O` (relative stereo) yielded a melting point of 211 to 215 °C. For `Cc1cccc(Cl)c1NS(=O)(=O)c1nc2sccn2n1`, the melting point was 91 to 93 °C. Compound `Cn1ccnc1Sc1ccc(Nc2c(C#N)cnc3cc(/C=C/CCN4CCOCC4)ccc23)cc1Cl` has a melting point of 232 to 238 °C. With `CC#CCOc1ccc(S(=O)(=O)N(C)C(C(=O)NO)C(C)(C)SCCN(CC)CC)cc1` (centres undefined) the melting point was 55 to 57 °C. Work on `CCOC(=O)CN(Cc1ccccc1Cl)c1ccc(C(O)(C(F)(F)F)C(F)(F)F)cc1` yielded a melting point of 146 °C. `CCc1ccc(SCc2c(C(C)C)nc(C(C)C)c(CO)c2-c2ccc(F)cc2)cc1` gave a melting point of 102 to 103 °C. In the case of `CC(C)c1nc(CCO)n(Cc2ccncc2)c1Sc1cc(Cl)cc(Cl)c1`, the melting point is reported as 121 to 122 °C. Compound `Nc1ccc(S(=O)(=O)c2cc(-c3ccccc3F)nc(N3CCCC3)c2)cc1` has a melting point of 246 to 248 °C. For `CC(C)(C)n1ncc(Cl)c(NCCN2CCN(c3cccc4c3OCCO4)CC2)c1=O`, the melting point was 177 to 178 °C. Work on `CC(=O)OCN1C(=O)CON(C(C)=O)C1c1ccccc1` (centres undefined) yielded a melting point of 75 to 76 °C. Work on `C=CCNC1=NN=C(c2ccc(Cl)cc2Cl)CS1` yielded a melting point of 188 to 189 °C. With `CCOC(=O)c1ncn2c1CN(C)C(=O)c1ncccc1-2` the melting point was 252 to 254 °C. With `COC(=O)c1ccc(COC(C)=O)nc1C1=NC(C)(C(C)C)C(=O)N1C(C)=O` (centres undefined) the melting point was 111 to 112 °C. `CC(C)(CO)NC(=O)c1ccncc1C1=CCCc2ccccc21` gave a melting point of 157 °C. Compound `CCS(=O)(=O)N(CC(=O)Nc1ccncc1)C1CC(C)(C)Oc2ccc(F)cc21` (centres undefined) has a melting point of 195 °C. Compound `O=C(OCC1OC(OCc2ccccc2)C(OCc2ccccc2)C(OCc2ccccc2)C1OCc1ccccc1)c1ncc[nH]1` (centres undefined) has a melting point of 105 to 108 °C. For `CCN(c1ccccc1)C1CC(C)N(C(C)=O)c2ccc(-c3ccccc3)cc21` (centres undefined), the melting point was 121 °C. Work on `CC(C)(C)NS(=O)(=O)c1cccc(NC(=O)c2cnn3c(C(F)(F)F)cc(-c4ccc(C(F)(F)F)cc4)nc23)c1` yielded a melting point of 232 °C. Work on `CCc1cccc(CNC[C@@H](O)[C@H](Cc2cc(F)cc(F)c2)NC(=O)CC2CCCC(=O)C2)c1` (some centres undefined) yielded a melting point of 140 to 150 °C. In the case of `COc1cc(COc2ccccc2O)cc(OC)c1`, the melting point is reported as 55 to 57 °C. With `COC(=O)C(C)(NC1OC(=O)C2C3C=CC(C3)C12)c1ccccc1` (centres undefined) the melting point was 120 °C. Compound `COc1cc2cnn(CCCl)c(=O)c2cc1OC` has a melting point of 181 to 183 °C. Compound `CCOC(=O)Cc1ccc(C(=O)c2ccc(C)cc2)n1C` has a melting point of 70 to 71 °C. Work on `Cc1ccc(C(=C/C=C/C(=O)NCCCCc2cccnc2)c2ccc(C)cc2)cc1` yielded a melting point of 144 to 146 °C. With `CCCCC(=O)Nc1ccc(N)cc1` the melting point was 81 to 83 °C. In the case of `COc1ccc2c(c1)C(O)(CCNC(C)=O)CCC2` (centres undefined), the melting point is reported as 106 to 109 °C. `CCCCCN(CCC12CC3CC(CC(C3)C1)C2)C(=O)NCCc1ccccn1` showed a melting point of 80 to 100 °C. In the case of `CC1(C)CC(S(=O)(=O)Cc2cc3c(cc2Cl)OCO3)=NO1`, the melting point is reported as 170 °C. For `Cc1cc(-c2ccc(C(F)(F)F)nc2)cc(-c2cccc(-c3ccc(S(N)(=O)=O)s3)c2)n1`, the melting point was 231 to 233 °C. Compound `N#Cc1ccc(NC(=O)c2ccccc2SSc2ccccc2C(=O)Nc2ccc(C#N)cc2)cc1` has a melting point of 239 to 241 °C. For `CC1COCC(C)N1C(=O)N1Cc2c(-c3noc(C4CC4)n3)ncn2-c2ccc(F)cc21` (centres undefined), the melting point was 143 to 146 °C. `CCCCCC1=C(/C=C/C(=O)O)Cc2cc(OC)ccc21` gave a melting point of 165 to 166 °C. In the case of `Cc1ccc(-c2cc(F)c(F)cc2-c2ccc(S(C)(=O)=O)cc2)cc1Cl`, the melting point is reported as 138 to 139 °C. In the case of `O=S(=O)(CCl)c1ncc(Cl)cn1`, the melting point is reported as 100 °C. In the case of `COc1ccc(CC(=O)c2ccc(OC)c(OC)c2)cc1OC`, the melting point is reported as 105 to 107 °C. `Cc1cn([C@H]2CC[C@H](CC(=O)O)C[C@@H]2NC(=O)OC(C)(C)C)c(=O)n(COCc2ccccc2)c1=O` showed a melting point of 89 to 91 °C. Compound `CC(C)=Cc1c(C)nc(C)c(CO)c1-c1ccccc1` has a melting point of 48 to 50 °C. For `Cc1ccc(N)cc1Nc1nccc(-c2ccc(Cl)nc2)n1`, the melting point was 117 to 118 °C. In the case of `COc1cc(-c2c(Cl)c(CCl)nc3sc4c(c23)CCN(Cc2ccccc2)C4)ccc1OC(C)C`, the melting point is reported as 173 to 174 °C. `COc1cccc(NC(=O)NC2N=C(c3ccccc3)c3ccccc3N(CC(=O)N3CCCC3)C2=O)c1` (centres undefined) showed a melting point of 193 to 194 °C. `CC1(C)OC[C@@H](CNc2c([N+](=O)[O-])cnc3cc(Br)ccc23)O1` gave a melting point of 136 to 137 °C. Work on `COc1cccc(OC)c1C(=O)Nc1nc[nH]n1` yielded a melting point of 191 to 193 °C. With `Cc1nn(C)c2c1nc(O)c1c(C(=O)O)cnn12` the melting point was > 300 °C. With `Cc1c(C(F)(F)F)cnn(-c2ccc(Cl)c(C=C(Cl)C(=O)O)c2)c1=O` the melting point was 168 °C. With `CNS(=O)(=O)c1c[nH]c(-c2ccc(Cl)cc2)n1` the melting point was 246 to 248 °C. `Cc1ccc(Oc2ccccc2C#N)c(O)c1` gave a melting point of 118 to 119 °C. For `CC(=O)N[C@@H](CSC(=O)c1ccccc1)C(=O)NCCSC(=O)c1ccccc1`, the melting point was 188 to 190 °C. Work on `CC(C)c1ccc(C(=O)C2CCNCC2)cc1` yielded a melting point of 55 to 57 °C. In the case of `CCC(c1oc2ccc(F)cc2c(=O)c1-c1ccccc1)n1cnc2c(N)ncnc21` (centres undefined), the melting point is reported as 266 to 272 °C. Compound `CCOc1nc(C)nc(N2CCN(c3ccc(F)cc3)CC2)c1[N+](=O)[O-]` has a melting point of 116 to 119 °C. Work on `CNC(=O)N1CC(Sc2ccc(Cl)cc2)C1` yielded a melting point of 161 to 162 °C. In the case of `COc1cc(N)c(Cl)cc1C(=O)NCC1CCN(CCCS(=O)(=O)Cc2ccc(F)cc2)CC1`, the melting point is reported as 147 to 148 °C.
